Assay results published in patent US20240060146A1, “CHEMICAL SUBSTANCE EVALUATION SYSTEM USING MULTICOLOR LIGHT-EMITTING CELLS” (TOHOKU UNIVERSITY, priority 2020, published 2024).
Counter-ions that a name gives are not always drawn.

Legend:
Assay type in all cases: cell-based
[1] = system: 2H4 cells; assay: IL-2 Luc LTT: evaluation of chemical substance in 2H4 cells; conditions: for IL-2 Luc LTT: 1 h chemical, then 25 nM PMA and 1 μM ionomycin 24 h, class from Min % suppression (nIL2LA) and Min Inh-GAPLA
Method: (§1) 2H4 cells were established from Jurkat cells according to the method described in PTL 1. First, for the preparation of 2H4 cells, a plasmid having SLG introduced downstream of the IL-2 promoter, a plasmid having SLR introduced downstream of the G3PDH promoter, and a plasmid having SLO introduced downstream of the INF-γ promoter were prepared as internal standards. These plasmids contained a resistance gene for hygromycin B, puromycin, and neomycin downstream of SLG, SLR, and SLO, respectively. The conditions for drug selection after transfection of the host Jurkat cells were as follows: in the primary selection, the cells were cultured for 1 week in the presence of a drug. In the secondary selection culture, the cells that survived in the primary selection culture were seeded in a 96-well plate at 1 cell/well or 200 cells/well, and cultured for 2 weeks under the same drug conditions. After the secondary selection culture, the cells were subjected to clone selection from the two points of signal intensity and signal induction by drug treatment. The G3PDH promoter SLR was first introduced to establish monochromatic stable cell line Jurkat: G3PDH-SLR #14D1 cells. These cells were used as the parent cell line to introduce the INF-γ promoter SLO, thereby establishing bichromatic stable cell line Jurkat: INFγ-SLO/G3PDH-SLR #2B12 cells. Subsequently, the obtained cells were used as a parent cell line to introduce the IL-2 promoter SLG, thereby establishing trichromatic stable cell line Jurkat IL-2-SLG/INFγ-SLO/G3PDH-SLR #2H4 cells.
The chemical substances listed in Table 1 were evaluated using 2H4 cells. 2H4 cells were seeded in a 96-well plate at 1×10^4/well and treated with each chemical substance for 1 hour, followed by incubating the cells with 25 nM PMA and 1 μM ionomycin for 24 hours. After 24 hours from the treatment with PMA and ionomycin, Tripluck Assay Reagent (manufactured by Toyobo Co., Ltd.) was added, and the amount of luminescence was measured with a Phelios microplate luminometer (manufactured by Atto Corporation). For control, 2H4 cells untreated with a chemical substance were also examined in the same manner. The amount of luminescence of SLG luciferase activity (IL2LA), SLR luciferase activity (GAPLA), and SLO luciferase activity (IFNLA) was measured, and IL-2LA and IFNLA were each normalized by GAPLA and determined to be nIL2LA and nIFNLA, respectively. Thereafter, for the concentration of each chemical substance, “% suppression” and “Inh-GAPLA” were determined according to the following formulas (1) and (2), and the chemical substances were evaluated by using their minimum value (Min % suppression, Min Inh-GAPLA).
In the evaluation, for control, PMA/ionomycin-treated 2H4 cells and PMA/ionomycin-untreated 2H4 cells were also measured for nIL2LA.
(§2) % suppression={(nIL2LA in 2H4 cells untreated with a chemical substance)−(nIL2LA in 2H4 cells treated with a chemical substance)}×100/(nIL2LA in 2H4 cells untreated with a chemical substance) ---(1) Inh-GAPLA=(GAPLA in 2H4 cells treated with a chemical substance)/(GAPLA in 2H4 cells untreated with a chemical substance) ---(2)

[2] = system: 2H4 cells; assay: IL-2 Luc assay: evaluation of chemical substance in 2H4 cells; conditions: for IL-2 Luc Assay: 1 h chemical, then PMA/ionomycin, luminescence after six hours, class from Min % suppression of nIL2LA
Method: as §1, §2
The chemical substances listed in Table 1 were evaluated using 2H4 cells. 2H4 cells were seeded in a 96-well plate at 2×10^5 cells/50 μl/well and treated with each chemical substance for 1 hour, followed by incubating the cells with 25 nM PMA and 1 µM ionomycin […]. After six hours from the treatment with PMA and ionomycin, Tripluc: Assay Reagent (manufactured by Toyobo Co., Ltd.) was added, and the amount of luminescence was measured with a Phelios microplate luminometer (manufactured by Atto Corporation). For control, 2H4 cells untreated with a chemical substance were also examined in the same manner. The amount of luminescence of SLG luciferase activity (IL2LA), SLR luciferase activity (GAPLA), and SLO luciferase activity (IFNLA) was measured, and IL-2LA and IFNLA were each normalized by GAPLA and determined to be nIL2LA and nIFNLA, respectively. Thereafter, for the concentration of each chemical substance, the value of suppression was calculated according to formula (1) above, and the chemical substances were evaluated by using their minimum value (Min suppression).

[3] = system: 2H4 cells; assay: Evaluation of combination of IL-2 Luc LTT and IL-2 Luc assay; parameters: key: Positive (Pos): If the result is either LCT in the IL-2 Luc LTT or S in the IL-2 Luc assay, or both, the chemical substance is determined to be an immunosuppressive substance.; Negative (Neg): In the case other than the above, the chemical substance is determined to be a non-immunosuppressive substance; conditions: LCT in IL-2 Luc LTT or S in IL-2 Luc assay = Pos
Method: Positive (Pos): If the result is either LCT in the IL-2 Luc LTT or S in the IL-2 Luc assay, or both, the chemical substance is determined to be an immunosuppressive substance. Negative (Neg): In the case other than the above, the chemical substance is determined to be a non-immunosuppressive substance.

SMILES | IL-2 Luc LTT [1] | IL-2 Luc Assay [2] | Evaluation of Combination [3] | determination in IL-2 Luc LTT (in words) [1] | determination by the IL-2 Luc assay alone (in words) [2]
Nc1ccn([C@@H]2O[C@H](CO)[C@@H](O)C2(F)F)c(=O)n1 [Gemcitabine hydrochloride] | NLCT | N (−35<Min % suppression <35: No Effect (denoted as “N”; determined to not affect immunity)) | Pos |  | 
CS(=O)(=O)Nc1cc2occ(NC=O)c(=O)c2cc1Oc1ccccc1 [Igratimod] | NLCT | S (Min %; suppression ≥35: Suppression (denoted as “S”; determined to have immunosuppressive action)) | Pos |  | 
NNC(=O)c1ccncc1 [Isoniazid] | I (−35<Min % suppression <35 and 0.7≤Min Inh-GAPLA: Inconclusive (denoted as “I”; possibly not measurable due to low water solubility)) | N (−35<Min % suppression <35: No Effect (denoted as “N”; determined to not affect immunity)) | Neg |  | 
Cc1c(OCC(F)(F)F)ccnc1C[S+]([O-])c1nc2ccccc2[nH]1 (centres unmarked) [Lansoprazole] | NLCT | S (Min %; suppression ≥35: Suppression (denoted as “S”; determined to have immunosuppressive action)) | Pos |  | 
Cc1oncc1C(=O)Nc1ccc(C(F)(F)F)cc1 [Leflunomide] | NLCT | S (Min %; suppression ≥35: Suppression (denoted as “S”; determined to have immunosuppressive action)) | Pos |  | 
O=C([O-])[O-].[Li+].[Li+] [Lithium carbonate] | I (−35<Min % suppression <35 and 0.7≤Min Inh-GAPLA: Inconclusive (denoted as “I”; possibly not measurable due to low water solubility)) | N (−35<Min % suppression <35: No Effect (denoted as “N”; determined to not affect immunity)) | Neg |  | 
OC[C@@H](O)[C@@H](O)[C@H](O)[C@H](O)CO [Mannitol] | I (−35<Min % suppression <35 and 0.7≤Min Inh-GAPLA: Inconclusive (denoted as “I”; possibly not measurable due to low water solubility)) | N (−35<Min % suppression <35: No Effect (denoted as “N”; determined to not affect immunity)) | Neg |  | 
CN(Cc1cnc2nc(N)nc(N)c2n1)c1ccc(C(=O)N[C@@H](CCC(=O)O)C(=O)O)cc1 [Methotrexate (MTX), Methotrexate] | NLCT | N (−35<Min % suppression <35: No Effect (denoted as “N”; determined to not affect immunity)) | Neg |  | 
CN(C)c1ccc(O)c2c1C[C@H]1C[C@H]3[C@H](N(C)C)C(O)=C(C(N)=O)C(=O)[C@@]3(O)C(O)=C1C2=O [Minocycline (MC), Minocycline] | NLCT | S (Min %; suppression ≥35: Suppression (denoted as “S”; determined to have immunosuppressive action)) | Pos |  | 
NC(=O)c1ncn([C@@H]2O[C@H](CO)[C@@H](O)[C@H]2O)c1O [Mizoribine (MZR), Mizoribine] | LCT (Min % suppression ≤−35 and Min Inh-GAPLA <0.7: Leukocyte toxic (denoted as “LCT”; determined to have cell growth inhibition action and/or metabolic activity inhibition action)) | N (−35<Min % suppression <35: No Effect (denoted as “N”; determined to not affect immunity)) | Pos | inhibit cell growth and/or metabolic activity | determined to not have imnunosuppressive action
COc1c(C)c2c(c(O)c1C/C=C(\C)CCC(=O)O)C(=O)OC2 [Mycophenolic acid (MPA), Mycophenolic acid] | LCT (Min % suppression ≤−35 and Min Inh-GAPLA <0.7: Leukocyte toxic (denoted as “LCT”; determined to have cell growth inhibition action and/or metabolic activity inhibition action)) | A (Min suppression ≤−35: Augmentation (denoted as “A”; determined to have immunoaugmenting action)) | Pos | inhibit cell growth and/or metabolic activity | determined to not have imnunosuppressive action
NC(=O)c1cccnc1 [Nicotinamide (NA), Nicotinamide] | LCT (Min % suppression ≤−35 and Min Inh-GAPLA <0.7: Leukocyte toxic (denoted as “LCT”; determined to have cell growth inhibition action and/or metabolic activity inhibition action)) | A (Min suppression ≤−35: Augmentation (denoted as “A”; determined to have immunoaugmenting action)) | Pos |  | 
CC(=O)O[C@H]1C(=O)[C@@]2(C)[C@H]([C@H](OC(=O)c3ccccc3)[C@]3(O)C[C@H](OC(=O)[C@H](O)[C@@H](NC(=O)c4ccccc4)c4ccccc4)C(C)=C1C3(C)C)[C@]1(OC(C)=O)CO[C@@H]1C[C@@H]2O [Paclitaxel] | LCT (Min % suppression ≤−35 and Min Inh-GAPLA <0.7: Leukocyte toxic (denoted as “LCT”; determined to have cell growth inhibition action and/or metabolic activity inhibition action)) | S (Min %; suppression ≥35: Suppression (denoted as “S”; determined to have immunosuppressive action)) | Pos |  | 
Cc1ccc(=O)n(-c2ccccc2)c1 [Pirfenidone] | I (−35<Min % suppression <35 and 0.7≤Min Inh-GAPLA: Inconclusive (denoted as “I”; possibly not measurable due to low water solubility)) | S (Min %; suppression ≥35: Suppression (denoted as “S”; determined to have immunosuppressive action)) | Pos |  | 
CC[C@H](C)C(=O)O[C@H]1C[C@H](O)C=C2C=C[C@H](C)[C@H](CC[C@@H](O)C[C@@H](O)CC(=O)O)[C@H]21 [Pravastatin] | I (−35<Min % suppression <35 and 0.7≤Min Inh-GAPLA: Inconclusive (denoted as “I”; possibly not measurable due to low water solubility)) | N (−35<Min % suppression <35: No Effect (denoted as “N”; determined to not affect immunity)) | Neg |  | 
CO[C@H]1C[C@@H]2CC[C@@H](C)[C@@](O)(O2)C(=O)C(=O)N2CCCC[C@H]2C(=O)O[C@H]([C@H](C)C[C@@H]2CC[C@@H](O)[C@H](OC)C2)CC(=O)[C@H](C)/C=C(\C)[C@@H](O)[C@@H](OC)C(=O)[C@H](C)C[C@H](C)/C=C/C=C/C=C/1C [Rapamycin (RPM), Rapamycin] | LCT (Min % suppression ≤−35 and Min Inh-GAPLA <0.7: Leukocyte toxic (denoted as “LCT”; determined to have cell growth inhibition action and/or metabolic activity inhibition action)) | N (−35<Min % suppression <35: No Effect (denoted as “N”; determined to not affect immunity)) | Pos | inhibit cell growth and/or metabolic activity | 
Cc1cn([C@H]2C[C@H](N=[N+]=[N-])[C@@H](CO)O2)c(=O)[nH]c1=O [Retrovir] | NLCT | A (Min suppression ≤−35: Augmentation (denoted as “A”; determined to have immunoaugmenting action)) | Pos |  | 
